The experiment deals with B6C3F1 mice, B16 melanoma ip, median survival T/C. Description: NCI In Vivo Anticancer Drug Screen. Data for tumor model B16 Melanoma (intraperitoneal) in B6C3F1 mice. The following applies: endpoint: median survival time, higher = longer survival. In outline: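 Transplantable tumor in mice; treated vs vehicle control groups; survival or tumor size measured; value = T/C ratio.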

Where [1] appears, read: dose: 100.0 mg/kg/injection, schedule: Q01DX009 (ip), vehicle: saline with Tween-80.
The mark [2] stands for this setting: dose: 200.0 mg/kg/injection, schedule: Q01DX009 (ip), vehicle: saline with Tween-80.
The mark [3] stands for this setting: dose: 400.0 mg/kg/injection, schedule: Q01DX009 (ip), vehicle: saline with Tween-80.
The mark [4] stands for this setting: dose: 25.0 mg/kg/injection, schedule: Q01DX009 (ip), vehicle: saline with Tween-80.
Setting [5] is: dose: 50.0 mg/kg/injection, schedule: Q01DX009 (ip), vehicle: saline with Tween-80.
Where [6] appears, read: dose: 12.5 mg/kg/injection, schedule: Q01DX009 (ip), vehicle: saline with Tween-80.
[7] abbreviates: dose: 6.25 mg/kg/injection, schedule: Q01DX009 (ip), vehicle: Klucel (hydroxypropylcellulose) (HPC).
Where [8] appears, read: dose: 25.0 mg/kg/injection, schedule: Q01DX009 (ip), vehicle: Klucel (hydroxypropylcellulose) (HPC).

Values joined by “and” are separate entries in the source; they are usually repeats but may differ in a detail not shown here. Identical values can stand only once. Toxic doses and inconclusive results are not listed. Where a SMILES comes first, the peptide text is derived from it.

The values that follow come from PubChem BioAssay AID200 (DTP/NCI, 2004).

For the compound `O=C(O)CNC(=O)CNC(=O)C(Cc1cnc[nH]1)NC(=O)OCc1ccccc1` (stereo unspecified) (HELM PEPTIDE1{[O=C(OCc1ccccc1)[*:2]].[O=C(C(Cc1c[nH]cn1)N[*:1])[*:2]].G.G}$$$$V2.0), the T/C was 89 % of control under setting [1], 91 % of control under setting [2] and 97 % of control under setting [3].
On to `Nc1ccc2ccc(NS(=O)(=O)N3CCCCC3)cc2c1`, for which the T/C was 110 % of control under setting [4], 98 % of control under setting [5], 111 % of control under setting [1] and 107 % of control under setting [2].
`O=C1c2ccccc2C(Cl)(c2ccc(Cl)cc2)c2ccc(Cl)cc21` (stereo unspecified): the T/C is 114 % of control under setting [4]; 109 % of control (dose: 36.0 mg/kg/injection, schedule: Q01DX009 (ip), vehicle: saline with Tween-80); 116 % of control and 120 % of control under setting [5]; 111 % of control (dose: 60.0 mg/kg/injection, schedule: Q01DX009 (ip), vehicle: saline with Tween-80); 115 % of control and 107 % of control under setting [1]; 122 % of control (dose: 166.67 mg/kg/injection, schedule: Q01DX009 (ip), vehicle: saline with Tween-80). Besides, the T/C is 117 % of control under setting [2] and 103 % of control (dose: 277.78 mg/kg/injection, schedule: Q01DX009 (ip), vehicle: saline with Tween-80).
As to `CC1([CH2][Hg][I])COCC([CH2][Hg][I])O1` (stereo unspecified), the T/C was 100 % of control (dose: 5.0 mg/kg/injection, schedule: Q01DX009 (ip), vehicle: Klucel (hydroxypropylcellulose) (HPC)); 102 % of control (dose: 10.0 mg/kg/injection, schedule: Q01DX009 (ip), vehicle: Klucel (hydroxypropylcellulose) (HPC)); 86 % of control (dose: 20.0 mg/kg/injection, schedule: Q01DX009 (ip), vehicle: Klucel (hydroxypropylcellulose) (HPC)).
For `c1ccc2[nH]ncc2c1`, the T/C by setting is: under setting [5], 107 % of control; under setting [1], 104 % of control; under setting [2], 102 % of control.
`CN=S(=O)(OCCCCCOS(=O)(=NC)c1ccc(C)cc1)c1ccc(C)cc1` (stereo unspecified): the T/C runs as follows: under setting [6], 94 % of control; under setting [4], 104 % of control; under setting [5], 113 % of control; under setting [1], 123 % of control.
Take `COC1/C=C\C=C(/C)C(=O)NC2=CC(=O)C(N)=C(CC(C)CC(OC)C(O)C(C)C=C(C)C1OC(N)=O)C2=O` (stereo unspecified): the T/C is, setting by setting: (dose: 0.75 mg/kg/injection, schedule: Q01DX009 (ip), vehicle: saline with Tween-80) 113 % of control; (dose: 1.5 mg/kg/injection, schedule: Q01DX009 (ip), vehicle: saline with Tween-80) 113 % of control; (dose: 3.0 mg/kg/injection, schedule: Q01DX009 (ip), vehicle: saline with Tween-80) 116 % of control.
As for `CCCCCC[Se][Se]CCCCCC`, the T/C was 97 % of control (dose: 1.56 mg/kg/injection, schedule: Q01DX009 (ip), vehicle: Klucel (hydroxypropylcellulose) (HPC)); 106 % of control (dose: 3.12 mg/kg/injection, schedule: Q01DX009 (ip), vehicle: Klucel (hydroxypropylcellulose) (HPC)); 95 % of control under setting [7].
As for `CN(C=O)C(C(=O)Nc1cccc2c(OC(=O)C(N(C)C=O)(N(C)C=O)N(C)C=O)c(N=Nc3ccc(S(=O)(=O)Nc4nccs4)cc3)cc(N=Nc3ccc(S(=O)(=O)Nc4nccs4)cc3)c12)(N(C)C=O)N(C)C=O` (tested in a mixture with another compound), the T/C by setting is: under setting [4], 98 % of control; under setting [5], 112 % of control; under setting [1], 121 % of control; under setting [2], 104 % of control; under setting [3], 105 % of control.
`Oc1ccccc1C=NCCC[N-]CCCN=Cc1ccccc1O.[Co]`: the T/C was 97 % of control (dose: 6.25 mg/kg/injection, schedule: Q01DX008 (ip), vehicle: saline); 101 % of control (dose: 6.25 mg/kg/injection, schedule: Q01DX009 (ip), vehicle: saline); 107 % of control (dose: 12.5 mg/kg/injection, schedule: Q01DX008 (ip), vehicle: saline); 107 % of control (dose: 12.5 mg/kg/injection, schedule: Q01DX009 (ip), vehicle: saline); 96 % of control (dose: 25.0 mg/kg/injection, schedule: Q01DX008 (ip), vehicle: saline); 113 % of control (dose: 25.0 mg/kg/injection, schedule: Q01DX009 (ip), vehicle: saline). Also, the T/C by setting is: (dose: 50.0 mg/kg/injection, schedule: Q01DX008 (ip), vehicle: saline) 86 % of control; (dose: 50.0 mg/kg/injection, schedule: Q01DX009 (ip), vehicle: saline) 105 % of control; (dose: 100.0 mg/kg/injection, schedule: Q01DX008 (ip), vehicle: saline) 95 % of control.
As to `NC(=S)N/N=C/c1ccc(O)cn1`, the T/C reads like this: (dose: 12.5 mg/kg/injection, schedule: Q01DX009 (ip), vehicle: suspension in saline) 106 % of control; (dose: 25.0 mg/kg/injection, schedule: Q01DX009 (ip), vehicle: suspension in saline) 113 % of control; (dose: 50.0 mg/kg/injection, schedule: Q01DX009 (ip), vehicle: suspension in saline) 119 % of control; (dose: 100.0 mg/kg/injection, schedule: Q01DX009 (ip), vehicle: suspension in saline) 118 % of control.
As for `CCC1(O)C(=O)OCc2c1cc1n(c2=O)Cc2cc3ccccc3nc2-1` (stereo unspecified), the T/C is 156 % of control (dose: 0.75 mg/kg/injection, schedule: Q01DX009 (ip), vehicle: other) and 165 % of control (dose: 1.5 mg/kg/injection, schedule: Q01DX009 (ip), vehicle: other).
`C=C1C(=O)[C@]23C[C@H]1CC[C@H]2[C@@]12CO[C@@H](O)[C@@H]1C(C)(C)[C@@H](O)C[C@@H]2OC3=O`: the T/C was 102 % of control under setting [4] and 102 % of control under setting [5].
Take `O=c1[nH]cnc2n[nH]nc12`: the T/C was 107 % of control (dose: 12.5 mg/kg/injection, schedule: Q01DX009 (ip), vehicle: Klucel (hydroxypropylcellulose) (HPC)); 97 % of control under setting [8]; 92 % of control (dose: 50.0 mg/kg/injection, schedule: Q01DX009 (ip), vehicle: Klucel (hydroxypropylcellulose) (HPC)); 90 % of control (dose: 100.0 mg/kg/injection, schedule: Q01DX009 (ip), vehicle: Klucel (hydroxypropylcellulose) (HPC)); 97 % of control (dose: 200.0 mg/kg/injection, schedule: Q01DX009 (ip), vehicle: Klucel (hydroxypropylcellulose) (HPC)); 90 % of control (dose: 400.0 mg/kg/injection, schedule: Q01DX009 (ip), vehicle: Klucel (hydroxypropylcellulose) (HPC)).
As for `COC(=O)Nc1cn2cc(C(=O)c3cccs3)ccc2n1`, the T/C by setting is: under setting [7], 122 % of control; under setting [8], 159 % of control and 175 % of control; (dose: 50.0 mg/kg/injection, schedule: Q01DX009 (ip), vehicle: other) 179 % of control.
For `CCCCCCCCCCS(=O)CC(CO)NC(=O)/C=C/c1c(C)[nH]c(=O)[nH]c1=O` (stereo unspecified), the T/C is 106 % of control (dose: 0.37 mg/kg/injection, schedule: Q01DX009 (ip), vehicle: distilled water + Tween-80); 106 % of control (dose: 0.37 mg/kg/injection, schedule: Q01DX009 (ip), vehicle: water); 95 % of control (dose: 0.75 mg/kg/injection, schedule: Q01DX009 (ip), vehicle: distilled water + Tween-80); 106 % of control (dose: 0.75 mg/kg/injection, schedule: Q01DX009 (ip), vehicle: water); 94 % of control (dose: 1.5 mg/kg/injection, schedule: Q01DX009 (ip), vehicle: distilled water + Tween-80); 108 % of control (dose: 1.5 mg/kg/injection, schedule: Q01DX009 (ip), vehicle: water). For the same compound, the T/C reads like this: (dose: 3.0 mg/kg/injection, schedule: Q01DX009 (ip), vehicle: distilled water + Tween-80) 100 % of control; (dose: 3.0 mg/kg/injection, schedule: Q01DX009 (ip), vehicle: water) 117 % of control; (dose: 6.0 mg/kg/injection, schedule: Q01DX009 (ip), vehicle: distilled water + Tween-80) 109 % of control; (dose: 6.0 mg/kg/injection, schedule: Q01DX009 (ip), vehicle: water) 114 % of control.
On to `CCOC(=O)Nc1cc2c(c(N)n1)N=C(c1ccccc1)CN2`, for which the T/C (dose: 1.25 mg/kg/injection, schedule: Q01DX009 (ip), vehicle: saline with Tween-80) is 96 % of control; the T/C (dose: 2.5 mg/kg/injection, schedule: Q01DX009 (ip), vehicle: saline with Tween-80) was 102 % of control; the T/C (dose: 5.0 mg/kg/injection, schedule: Q01DX009 (ip), vehicle: saline with Tween-80) was 107 % of control.
With `C/C=C/c1cc2c(c(=O)o1)C(=O)[C@@H](O)[C@H](C)O2`, the T/C was 98 % of control (dose: 6.25 mg/kg/injection, schedule: Q01DX009 (ip), vehicle: saline with Tween-80); 103 % of control under setting [6]; 100 % of control under setting [4]; 118 % of control under setting [5]; 109 % of control under setting [1]; 103 % of control under setting [2].
